Reference: ChEMBL document CHEMBL1201862, “PubChem BioAssay data set” (2004)
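Five concentrations, 48 hours, 96-well plates. The concentration for 50% growth inhibition is given as GI50.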 Activity calls are given as the source filed them. No stated cut-off is given here; in the data, active = GI50 up to about 1.1 µM and inactive = higher.

Columns and labels:
Assay in all cases: NCI-60 cell line screen, 48 h
NCI-H460 = system: NCI-H460
HCT-116 = system: HCT-116
IGROV-1 = system: IGROV-1
Hs-578T = system: Hs-578T
HT-29 = system: HT-29
SK-OV-3 = system: SK-OV-3
SR = system: SR
MDA-MB-435 = system: MDA-MB-435
OVCAR-3 = system: OVCAR-3
EKVX = system: EKVX
OVCAR-5 = system: OVCAR-5
U-251 = system: U-251
HOP-62 = system: HOP-62
HOP-92 = system: HOP-92
HL-60 = system: HL-60
K562 = system: K562
DU-145 = system: DU-145
A549 = system: A549
SF-539 = system: SF-539
NCI-H522 = system: NCI-H522

Measured: GI50

Cc1[nH]c(=O)nc(S)c1C(=O)Nc1cccc2cc3ccccc3cc12
inactive: NCI-H460 > 100 µM | HCT-116 > 100 µM | IGROV-1 > 100 µM | Hs-578T > 100 µM | HT-29 > 100 µM | SK-OV-3 > 100 µM | SR > 100 µM | MDA-MB-435 > 100 µM | OVCAR-3 > 100 µM | EKVX > 100 µM | OVCAR-5 > 100 µM | U-251 > 100 µM | HOP-62 > 100 µM | HOP-92 > 100 µM | HL-60 > 100 µM | K562 > 100 µM | DU-145 > 100 µM

Cc1nn(C(=O)c2ccccc2O)c2c1C(c1ccc(O)cc1)SC(=N)N2 (stereo unspecified)
inactive: HCT-116 1.49 µM | IGROV-1 2.08 µM | HT-29 > 6.9 µM | SK-OV-3 2.25 µM | SR 1.44 µM | MDA-MB-435 1.21 µM | OVCAR-3 > 2.66 µM | EKVX > 4 µM | OVCAR-5 > 6.35 µM | A549 1.26 µM | U-251 1.37 µM | HL-60 > 2.03 µM | SF-539 1.36 µM | NCI-H522 > 3.29 µM | DU-145 1.67 µM
active: NCI-H460 0.359 µM | Hs-578T 0.449 µM | K562 0.955 µM

O=C(C1OC1c1ccc(Cl)cc1)C12CC3CC(CC(C3)C1)C2 (stereo unspecified)
inactive: NCI-H460 14.9 µM | HCT-116 12.4 µM | IGROV-1 23.6 µM | Hs-578T 28.4 µM | HT-29 21 µM | SK-OV-3 31 µM | MDA-MB-435 14.3 µM | OVCAR-3 15.8 µM | EKVX 23.1 µM | OVCAR-5 24.2 µM | A549 21.8 µM | U-251 15.4 µM | HOP-62 24.8 µM | HOP-92 16.9 µM | HL-60 18.3 µM | SF-539 17.3 µM | K562 25.1 µM | NCI-H522 20.9 µM | DU-145 29.1 µM

Cc1cccc(NC(=S)NNC(=O)c2cc(-c3ccccc3)nc3ccccc23)c1
inactive: NCI-H460 30.9 µM | HCT-116 20.8 µM | IGROV-1 33.6 µM | Hs-578T 37 µM | HT-29 34.7 µM | SK-OV-3 25.6 µM | SR 17.9 µM | MDA-MB-435 28.4 µM | OVCAR-3 26.8 µM | OVCAR-5 35.5 µM | A549 25.4 µM | U-251 30.1 µM | HOP-62 32 µM | HOP-92 26.2 µM | SF-539 21.8 µM | K562 41.5 µM | NCI-H522 26.2 µM | DU-145 34.4 µM

O=C(N/S(=N/S(=O)(=O)c1ccc(Br)cc1)C(Cl)(Cl)Cl)c1ccccc1 (stereo unspecified)
inactive: NCI-H460 > 100 µM | HCT-116 > 100 µM | IGROV-1 > 100 µM | Hs-578T > 100 µM | HT-29 > 100 µM | SK-OV-3 > 100 µM | SR 70 µM | MDA-MB-435 > 100 µM | OVCAR-3 > 100 µM | EKVX > 100 µM | OVCAR-5 > 100 µM | A549 > 100 µM | U-251 > 100 µM | HOP-62 > 100 µM | HOP-92 26.2 µM | SF-539 > 100 µM | K562 > 100 µM | DU-145 > 100 µM

CN(C)CCNC(=O)c1cccc2c(NC(CS)C(=O)O)c3ccccc3[n+](C)c12 (stereo unspecified)
inactive: NCI-H460 45.5 µM | HCT-116 41.1 µM | IGROV-1 43.8 µM | Hs-578T > 100 µM | HT-29 99.3 µM | SK-OV-3 > 100 µM | SR 22.7 µM | MDA-MB-435 68.5 µM | OVCAR-3 81.3 µM | EKVX 56.9 µM | OVCAR-5 > 100 µM | A549 62.1 µM | U-251 > 100 µM | HOP-62 60.8 µM | SF-539 80.4 µM | K562 87.9 µM | DU-145 37.6 µM

CCOP(=O)(OCC)C(C#N)Cc1ccco1 (stereo unspecified)
inactive: NCI-H460 > 10 µM | HCT-116 > 10 µM | IGROV-1 > 10 µM | Hs-578T > 10 µM | HT-29 > 10 µM | SK-OV-3 > 10 µM | SR > 10 µM | MDA-MB-435 > 10 µM | OVCAR-3 > 10 µM | EKVX > 10 µM | OVCAR-5 > 10 µM | A549 > 10 µM | U-251 > 10 µM | HOP-62 > 10 µM | HOP-92 > 10 µM | HL-60 > 10 µM | SF-539 > 10 µM | K562 > 10 µM | DU-145 1.98 µM

COc1ccc(N2C(=O)C3c4[nH]c5cccc(C)c5c4C4CCC(C(C)(C)C)CC4C3C2=O)cc1 (stereo unspecified)
inactive: NCI-H460 4.68 µM | HCT-116 5.62 µM | IGROV-1 > 10 µM | Hs-578T > 10 µM | HT-29 > 10 µM | SK-OV-3 > 10 µM | SR > 10 µM | MDA-MB-435 > 10 µM | OVCAR-3 > 10 µM | EKVX > 10 µM | OVCAR-5 > 10 µM | A549 > 10 µM | U-251 9.91 µM | HOP-62 > 10 µM | HL-60 > 10 µM | SF-539 > 10 µM | K562 > 10 µM | NCI-H522 > 10 µM | DU-145 > 10 µM

CCOP(=O)(O)C(C)(C)NC
inactive: NCI-H460 > 100 µM | HCT-116 > 100 µM | IGROV-1 > 100 µM | Hs-578T > 100 µM | HT-29 > 100 µM | SK-OV-3 > 100 µM | MDA-MB-435 > 100 µM | OVCAR-3 > 100 µM | EKVX > 100 µM | OVCAR-5 > 100 µM | A549 > 100 µM | U-251 > 100 µM | HOP-62 > 100 µM | HOP-92 > 100 µM | HL-60 > 100 µM | SF-539 > 100 µM | K562 > 100 µM | NCI-H522 > 100 µM | DU-145 > 100 µM

Nc1ncnc2c1cnn2COCC(O)CO (stereo unspecified)
inactive: NCI-H460 > 100 µM | HCT-116 > 100 µM | IGROV-1 > 100 µM | Hs-578T > 100 µM | HT-29 > 100 µM | SK-OV-3 > 100 µM | SR > 100 µM | MDA-MB-435 > 100 µM | OVCAR-3 > 100 µM | EKVX > 100 µM | OVCAR-5 > 100 µM | A549 > 100 µM | U-251 > 100 µM | HOP-62 > 100 µM | HOP-92 > 100 µM | SF-539 > 100 µM | K562 > 100 µM | NCI-H522 > 100 µM | DU-145 > 100 µM

N#CCCC1(CCC#N)S(=O)(=O)OCCOS1(=O)=O
inactive: HCT-116 40.9 µM | Hs-578T 18.2 µM | HT-29 45.9 µM | SK-OV-3 51.3 µM | SR 29.6 µM | MDA-MB-435 47.6 µM | OVCAR-3 32.1 µM | EKVX > 100 µM | OVCAR-5 > 100 µM | A549 48.1 µM | U-251 24.7 µM | HL-60 23.3 µM | SF-539 8.34 µM | NCI-H522 27.1 µM | DU-145 58.3 µM
active: HOP-62 < 0.01 µM

C[N+]1(C)[C@@H]2CC[C@H]1C[C@@H](OC(=O)C(CO)c1ccccc1)C2 (stereo partly specified) [ATROPINE METHYLBROMIDE]
inactive: HCT-116 > 100 µM | IGROV-1 > 100 µM | Hs-578T > 100 µM | HT-29 > 100 µM | SK-OV-3 > 100 µM | SR > 100 µM | MDA-MB-435 > 100 µM | OVCAR-3 > 100 µM | EKVX > 100 µM | OVCAR-5 > 100 µM | A549 > 100 µM | U-251 > 100 µM | HOP-62 > 100 µM | SF-539 > 100 µM | K562 > 100 µM | NCI-H522 > 100 µM | DU-145 > 100 µM

Cc1nc2ccc(Br)cc2c(=O)n1-c1ccc(N)cc1
inactive: NCI-H460 > 100 µM | HCT-116 > 100 µM | IGROV-1 > 100 µM | Hs-578T > 100 µM | HT-29 > 100 µM | SK-OV-3 > 100 µM | SR > 100 µM | MDA-MB-435 > 100 µM | OVCAR-3 > 100 µM | EKVX > 100 µM | OVCAR-5 > 100 µM | A549 > 100 µM | HOP-62 > 100 µM | HOP-92 > 100 µM | HL-60 > 100 µM | SF-539 > 100 µM | K562 > 100 µM | DU-145 > 100 µM

CC1(CO)COC(C)(C)OC1
inactive: NCI-H460 > 100 µM | HCT-116 > 100 µM | Hs-578T > 100 µM | HT-29 > 100 µM | SK-OV-3 > 100 µM | SR > 100 µM | MDA-MB-435 > 100 µM | OVCAR-3 > 100 µM | A549 > 100 µM | U-251 > 100 µM | HOP-92 > 100 µM | NCI-H522 > 100 µM | DU-145 > 100 µM

COc1ccc(/N=N/C(=N\c2ccc(F)cc2)c2ccc(N(CCC#N)CCC#N)cc2)cc1
inactive: NCI-H460 20.2 µM | HCT-116 32.6 µM | IGROV-1 19.9 µM | Hs-578T 27.4 µM | HT-29 39.5 µM | SK-OV-3 58.5 µM | SR 21.7 µM | MDA-MB-435 39.2 µM | OVCAR-3 30.9 µM | EKVX 34.4 µM | OVCAR-5 52.1 µM | A549 18.7 µM | U-251 13.9 µM | HOP-62 41.8 µM | HOP-92 25.6 µM | SF-539 > 100 µM | K562 27.6 µM | NCI-H522 20 µM | DU-145 33 µM
